Patent publication US11523610B2, “Regulating plant growth using a diapocarotenoid” (King Abdullah University of Science and Technology, priority 2018, dated 2022)

Tests used:
Type in all cases: in vivo
[1] = test system: Arabidopsis seedlings (anchor roots); test: Anchor root (ANR) emergence/formation in seedlings without RAM excision; conditions: for seedlings forming ANRs: no RAM excision, 8 DAG
Description: Sterilized Col-0 and mutants seeds were kept at 4° C. in darkness for 3 days to stimulate seed germination, and then sown on half strength MSO plates (with 0.5% sucrose +1% agar, 0.5g/L MES, pH 5.7) supplemented with the indicated chemicals as described below or in the Figures. Plates were vertically grown in PERCIVAL® growth chambers under long day (16 h light/8 h dark, 22° C., 60% relative humidity, light density: 4000 LUX) LED white light [HYPERIKON® 16 W LED Light Bulb A21, 16 W (100 W Equivalent), CRI92, 1620 Lumens, 4000K (Daylight Glow)] conditions. Light fluorescence rates were measured using a digital LUX meter (PEAKTECH® 5025).
(§1) ANRs were counted in seedlings vertically grown on half strength MS (with 0.5% sucrose +1% agar, 0.5 g/L MES, pH 5.7) media 8 days post-stratification (dps) using a dissection microscope. To investigate ANR formation after root apical meristems (RAM) excision (ANR-RE), RAM of seedlings were excised using sterile scalpels at 5 dps and then grown for another 3 days prior to counting the number of emerged ANRs. RAM of seedlings were excised at 8 dps and then grown for another 3 days prior to counting the number of emerged LRs. For determining the effect of anchorene on lateral roots, the number of emerged lateral roots were counted using a dissection microscope at 8 dps. For primary root length measurements, seedlings were measured using the publicly available ImageJ software (downloaded from rsbweb.nih.gov/ij/) after taking digital photographs. For adventitious root assay, the number of emerged adventitious roots per plant were counted after 5 days of treatment on plates with or without anchorene.
Prior to the anchor root (ANR) measurements, seeds from 10 ecotypes (Po-0, Is-0, Wu-0, Col-0, Cvi-0, Hi-0, Ove-0, Sav-0, Ler and Kin-0) were harvested from plants grown in long-day photoperiod conditions (16h light/8 h darkness, 22° C., 60% humidity). Seeds of all 10 ecotypes were surfaced sterilized and incubated in sterile water at 4° C. for 8 days, for uniform germination. Natural ANR emergence and ANRC was measured as described above (Anchor root assays) for each ecotype. 20 μM anchorene was used to test the responses of the Po-0 and Is-0 ecotypes to anchorene.
Excision of the root apical meristems (RAM) triggers ANR formation (FIGS. 3C-D). […] About 9% of control Col-0 seedlings developed ANRs under normal conditions, while approximately 50% formed ANRs upon RAM excision (FIGS. 4B-C). […] Higher anchorene concentrations (10 and 20 μM) enhanced this ratio to 97% and 100%, respectively (FIGS. 4B-C). There was also an increase in the number of seedlings that developed two ANRs from 0% in the untreated control to approximately 80% upon application of 20 μM anchorene (FIGS. 4B-C). Using a wide range of concentrations, a dose-response curve was established in the presence and absence of RAM excision. […] Thus, the promotion of ANRs is not caused by inhibiting primary root growth.

[2] = test system: Arabidopsis seedlings (root gravitropism); test: Root gravitropism of NPA treated seedlings; conditions: 5 DAG seedlings, 1 μM NPA plus 20 μM anchorene
Description: To determine if the effect of anchorene on ANR development is caused by changes in auxin distribution, the activity of anchorene in the presence of NPA was evaluated. […] Vertical grown 5 DAG seedlings on half MSO with indicated treatments were analyzed. The orientation of root growth was measured and then was assigned to one of twelve 30° sectors. […] The auxin efflux carrier PIN3 plays an important role in LR initiation and emergence. Therefore, the effect of anchorene on PIN3 using the pPIN3::PIN3-GFP marker line was examined.

[3] = test system: dark grown Arabidopsis seedlings; test: Adventitious root assay; conditions: 5, 10, or 20 μM anchorene, 5 days
Source text: as §1
4-day-old dark grown Arabidopsis seedlings were transferred to plates with 5, 10, or 20 μM anchorene, or without. After 5 additional days of growth, the number of adventitious roots was determined for each seedling.

[4] = test system: Arabidopsis seedlings (anchor roots after RAM excision); test: ANR formation after root apical meristem excision (ANR-RE)
Source text: as §1
ANR formation under carotenoid-deficient conditions was monitored to determine the role of endogenous carotenoids in ANR development. […] Therefore, ANR formation was monitored after RAM excision (ANR-RE) to stimulate ANR development. ANR measurements were used as an indicator of ANR formation capacity under different conditions. […] Norflurazon (NF) and 2-(4-chlorophenylthio)-triethylamine hydrochloride (CPTA), which block phytoene desaturation and lycopene cyclization, respectively were tested (FIG. 6A). The effect of D15, an inhibitor of CCDs was also investigated. Application of D15 to Arabidopsis seedlings is known to lead to an increase in carotenoid levels.

C\C(C=O)=C/C=C/C=C(\C)C=O [anchorene, 12,12′-diapocarotene-12,12′-dial]
seedlings forming ANRs ([1]; 5 μM, control about 9%): 55% | seedlings forming ANRs ([1]; 10 μM): 97% | seedlings forming ANRs ([1]; 20 μM): 100% | seedlings that developed two ANRs ([1]; 20 μM, untreated control 0%): approximately 80% | ANR emergence in different Arabidopsis ecotypes ([1]; Col-0, Is-0 and Po-0, 20 μM anchorene): promotes ANR emergence | ANR formation ([1]; screen at 5 or 25 μM): promotion of ANR formation | dose-response of ANR formation ([1]; wide range of concentrations, in presence and absence of RAM excision (FIG. 3J)): dose dependent | gravitropism in NPA treated seedlings [2]: largely restored | number of adventitious roots [3]: significantly increases | rescue of ANR-RE in carotenoid biosynthesis inhibitor treated seedlings ([4]; 20 μM anchorene simultaneous with 1 μM NF or 100 μM CPTA): blocked inhibition of ANR-RE | rescue of ANR-RE in NPA treated seedlings ([4]; 20 μM anchorene with 1 μM NPA): partially compensated | ANR formation in arf7arf19 double mutant ([4]; arf7arf19, 20 μM anchorene or after RAM excision): did not form any ANR | rescue of ANR-RE in psy mutant ([4]; psy mutant, 20 μM anchorene): restored wild-type ANR-RE
